Measurements from ChEMBL document CHEMBL1157989, “Novel antioxidant compounds from tart cherries (Prunus cerasus)” (J Nat Prod, 1999).
Activity calls are given as the source filed them. No cut-off for these calls is given here.

Assay: Antioxidant activity against Fe2+-induced lipid peroxidation at 20 uM by fluorescence spectroscopy
Type: functional

SMILES	Activity
O=C(/C=C/c1ccc(O)c(O)c1)O[C@@H]1CC[C@@H](O)[C@H]1O	80%
O=C(/C=C/c1ccc(O)c(O)c1)OC1[C@H](O)CC[C@@H]1O (stereo partly specified)	80%
Cc1cc(C(C)(C)C)c(O)c(C(C)(C)C)c1	> 90%
COC(=O)[C@]1(O)C[C@@H](O)[C@@H](O)[C@H](OC(=O)/C=C/c2ccc(O)c(O)c2)C1	50%
CC(C)(C)c1cc(O)ccc1O	> 90%

Assay: Antioxidant activity against Fe2+-induced lipid peroxidation at 100 uM by fluorescence spectroscopy
Type: functional

SMILES	Activity
O=C(O)C(O)Cc1ccccc1O (racemic)	inactive
